Measured values reported in patent US20160215348A1, “GENE EXPRESSION BIOMARKERS AND THEIR USE FOR DIAGNOSTIC AND PROGNOSTIC APPLICATION IN PATIENTS POTENTIALLY IN NEED OF HDAC INHIBITOR TREATMENT” (4SC AG, priority 2013, published 2016).

Test system: ZFP64
Experiment: qPCR relative expression (vs cycle 1, day 1, hour 0) in patients' whole blood
Format: in vivo, human
Details: HCC patients; Sorafenib 400 mg added to Resminostat 600 mg
Protocol: 2.5 ml whole blood from patients was collected in PAXgene™ tubes (BD Biosciences) that contain chemicals to lyse the erythrocytes, stabilize RNA from degradation by RNases and minimize ex vivo changes in gene expression. The samples were incubated at 20° C. to 25° C. for 2 hours and then frozen at −20° C. until purification of total RNA.
Total RNA was isolated from the whole blood samples stabilized in PAXgene™ buffer using a spin column based technique suitable for whole blood samples (like PAXgene™ Blood miRNA Kit or PAXgene™ Blood RNA Kit from Qiagen) according to the manufacturer's instructions. The purification began with a centrifugation step to pellet nucleic acids in the (PAXgene™ Blood RNA) tube. The resuspended pellet was incubated in buffers, optimized for maintenance of RNA stability together with proteinase K to bring about protein digestion. An additional centrifugation through the PAXgene™ Shredder spin column was carried out to homogenize the cell lysate and remove residual cell debris, and the supernatant of the flow-through fraction was transferred to a fresh microcentrifuge tube. Ethanol was added to adjust binding conditions, and the lysate was applied to a PAXgene™ RNA spin column. During a brief centrifugation, RNA was selectively bound to the PAXgene™ silica membrane as contaminants pass through. Remaining contaminants were removed in several efficient wash steps. Between the first and second wash steps, the membrane was treated with DNase I, as described herein below in 1.3 to remove trace amounts of bound DNA. After the wash steps, RNA was eluted in nuclease free water and heat-denatured.
The High-Capacity cDNA Reverse Transcription Kit (Applied Biosystems) was used for reverse transcription of total RNA into single stranded cDNA with the aid of random hexamer primers according to the manufacturer's instructions. Briefly, for the reaction mix total RNA was mixed with random primers in excess, 4 mM dNTP Mix, 2.5 U/reaction, reverse transcriptase and nuclease free water. The reverse transcription took place in a thermal cycler under the following conditions: 25° C. for 10 min, 37° C. for 120 min, 85° C. for 5 min, followed by 4° C. for cooling down the reaction. The reverse transcription can be done in principle as well with other reverse transcriptases, primers and temperature protocols. Whenever possible, 250 ng total RNA were reverse transcribed if not available, lower amounts were used.
Custom TaqMan® Arrays (Applied Biosystems) in Format 16 were designed for the gene expression analysis of biomarkers of the present invention and housekeeping genes as outlined in table 4. These arrays allow for qPCR analysis of 8 samples per card. Of course, all reactions can be done as well by conventional qPCR analysis with specific primers.
The reaction mix was transferred into the reaction chambers by centrifuging twice for 1 minute each at 330 g and 4° C. After sealing, the microfluidic cards were run on an AB7900HT instrument (Applied Biosystems). The software SDS 2.4 (Applied Biosystems) was employed for instrument control, data acquisition and raw data analysis. The plates were run in Relative Quantification (ΔΔCt) mode, and the following temperature profile was used:
This analysis was carried out for each patient separately. The first sample (cycle 1, day 1, hour 0) was used as the reference sample. The ‘exprs’ value indicates relative expression levels (fold change values) for individual samples.
Table 5 contains the median expression level values for treatment day 5 (cycle 1, day 5, hours 0, 2, and 5) at a daily dose of 600 mg or 800 mg Resminostat mesylate salt is given below.

## CNC(=O)c1cc(Oc2ccc(NC(=O)Nc3ccc(Cl)c(C(F)(F)F)c3)cc2)ccn1 [sorafenib, reference compound]
  Effect of additional administration on ZFP64 expression (FIG. 4b): does not affect
